Data reported in patent US4283394A, “Cytotoxic nucleoside-corticosteroid phosphodiesters” (priority 1979, dated 1981).

How the values were obtained:
[1] = tested on: intracerebrally implanted L-1210; assay: Antitumor activity against intracerebrally (i.c.) implanted L-1210 in mice; type: in vivo; conditions: 50 mg/kg/day × 5 i.p.; for Survivors on day 35: groups of 8 mice; for Percent T/C: values as of 35th day
Method: Effects of the conjugate on i.c. implanted L-1210 in mice were also studied. A mouse (C3 D2 F1 /J, female, avg. wt. 20 g) was anesthesized with diethyl ether, the right parietal scalp was washed with 70 percent ethanol, a 27 G 1/2 needle with a guard placed on the outside of the barrel 1.5 mm from the top of the bevel, was inserted through the skull and 1×10^5 cells in 0.05 ml suspension were inoculated into the mouse. The conjugate in 0.9 percent NaCl (0.5 ml) was administered intraperitoneally once daily. Treatment began 24 h after implantation and continued for 5 consecutive days. Control animals received a 0.5 ml injection of saline. Testing was followed as described in the NCI protocol and evaluated by recording the survival time according to the formula appearing in protocol 11.

[2] = tested on: crude Crotalus adamenteus venom; type: in vitro ADME; conditions: 2.5 mg crude venom, 24 h, 37° C.
Method: Enzymatic cleavage of the phosphodiester bond of the conjugates was studied by incubating the conjugates (5 μmol) with various enzymes (1.5-3 mg) in appropriate buffer and with plasma (final volume 0.5 ml). An aliquot (200 μl) of the 24 h incubation mixtures was streaked on Whatman 3 MM paper (23×57 cm) with the authentic markers and the paper was developed in Solvent A. The bands were characterized and analyzed semi-quantitatively by UV estimation of the chromatographs. […] The conjugates also remained 60-85 percent intact during the incubation with baboon plasma at 37° C. for 24 h. From the results of these tests, conjugates of this type appear capable of serving as sustained release froms of the parent steroid and nucleoside components thereof.

In the case of `C[C@]12C=CC(=O)C=C1CC[C@@H]1[C@@H]2[C@@H](O)C[C@@]2(C)[C@H]1CC[C@]2(O)C(=O)CO[P+]([O-])(O)OC[C@H]1O[C@@H](n2ccc(N)nc2=O)[C@@H](O)[C@@H]1O` (stereo partly drawn) [Pred-p-ara-C (I), 5'-(Prednisolone-21-phosphoryl)-1-β-D-arabinofuranosylcytosine], the “Mean Survival Days” value [1] is reported as 18.13 days, the “body weight lost by day 11” value [1] is reported as “about 4 g” and the “weight gained over original weight (20 g) by day 20” value [1] is reported as “about 1 g”. For the same molecule, the “Survivors on day 35” value [1] was 1, the “Percent T/C” value [1] was 201.4% and the “Percent T/C” value ([1]; listed as I) was 201%. The “hydrolysis by crude snake venom” value [2] was “hydrolyzed completely”, the “product ara-C” value [2] was 50% and the product steroid [2] was 50%.
With `C[C@]12C=CC(=O)C=C1CC[C@@H]1[C@@H]2C(=O)C[C@@]2(C)[C@H]1CC[C@]2(O)C(=O)CO[P+]([O-])(O)OC[C@H]1O[C@@H](n2ccc(N)nc2=O)[C@@H](O)[C@@H]1O` (stereo partly drawn) [Prednisone-p-ara-C (II), 5'-(Prednisone-21-phosphoryl)-1-β-D-arabinofuranosylcytosine] the “Mean Survival Days” value [1] was 16.50 days, the “body weight lost by day 11” value [1] was “about 4 g” and the “Survivors on day 35” value [1] was 1. For the same molecule, the “Percent T/C” value [1] was 183.3%, the “Percent T/C” value ([1]; listed as II) was 183% and the “hydrolysis by crude snake venom” value [2] was “hydrolyzed completely”. For the same molecule, the “product ara-C” value [2] was 50% and the product steroid [2] was 50%.
